Results published in patent US20100041903A1, “Ozonized Surfactant” (ERC TECHNOLOGY INC., priority 2006, published 2010).

Legend:
[1] = Surface-active property test (contact angle on polyvinyl chloride plate); format: physicochemical; settings: Surfactant not subjected to ozone treatment; 1 wt % aqueous solution on polyvinyl chloride plate
Protocol: The surface-active properties of ozonized surfactants were determined in the following manner. 1 wt % of aqueous solutions of surfactants (Tween 80, polyethylene glycol 10 oleyl ether, and polyethylene glycol 20 oleyl ether (manufactured by Wako Pure Chemical Industries, Ltd.)) were prepared, and each of the solutions was dropped on a polyvinyl chloride plate to measure a contact angle (θ) using a contact angle meter CA-VP (manufactured by Kyowa Interface Science Co., Ltd.). The same measurement was carried out for the ozonized surfactants obtained in Examples 1, 2 and 4.

[2] = test system: Cladosporium cladosporioides; assay: Minimum inhibitory concentration test; format: cell-based; settings: 96 H, 25° C., Sabouraud medium, 1 × 10^5/mL
Source text: (§1) In order to check the antibacterial and antifungal performance of the ozonized surfactant according to the present invention, bacteriostatic and bactericidal effects of the ozonized surfactant against five kinds of microorganisms were examined. The five kinds of target microorganisms were Staphyrococcus aureus as a prokaryotic gram-positive bacterium, Escherichia coli as a prokaryotic gram-negative bacterium, Saccharomyces cerevisiae and Trichophyton mentagrophytes as fungi which are eukaryotic microorganisms, and Cladosporium cladosporioides. One loopful of each strain was inoculated in a medium optimum for the strain, and cultured under culture conditions optimum for the strain to prepare a cell suspension for inoculation. […] 9 mL of each medium shown in Table 1 was dispensed into L-shaped test tubes for a biophotorecorder, and was then sterilized by steam. […] 0.1 mL of the cell suspension for inoculation was inoculated into the graduated dilution series to be tested (the initial number of cells of each microorganism is shown in Table 1). […] In the following tests, they were sterilized in the same manner. [table] […] Another graduated dilution series was prepared between the temporary minimum inhibitory concentration and the concentration of the ozonized surfactant nearest to the temporary minimum inhibitory concentration, at which turbidity occurred. Then, the same operation as described above was again carried out. […] It is to be noted that this MIC test against these five kinds of microorganisms was carried out also using, as a control, the surfactant solution not subjected to ozone treatment.

Escherichia coli = assay: Minimum inhibitory concentration test; format: cell-based; settings: 24 H, 30° C., Bouillon liquid medium, 1 × 10^7/mL
Source text: as §1

Saccharomyces cerevisiae = assay: Minimum inhibitory concentration test; format: cell-based; settings: 48 H, 28° C., YM liquid medium, 1 × 10^6/mL
Source text: as §1

Staphyrococcus aureus = assay: Minimum inhibitory concentration test; format: cell-based; settings: 24 H, 37° C., Bouillon liquid medium, 1 × 10^7/mL
Source text: as §1

[3] = test system: Trichophyton mentagrophytes; assay: Minimum inhibitory concentration test; format: cell-based; settings: 96 H, 25° C., Sabouraud medium, 1 × 10^5/mL
Source text: as §1

polyethylene glycol 20 oleyl ether [Polyethylene glycol (20) oleyl ether]
Contact angle (θ) [1]: 59.4 degree (°)

Polyethylene glycol 10 oleyl ether [Polyethylene glycol (10) oleyl ether]
minimum inhibitory concentration [2]: >1% by weight | minimum inhibitory concentration (Escherichia coli): >1% by weight | minimum inhibitory concentration (Saccharomyces cerevisiae): >1% by weight | minimum inhibitory concentration (Staphyrococcus aureus): >1% by weight | minimum inhibitory concentration [3]: >1% by weight | Contact angle (θ) [1]: 51.9 degree (°)
